# Results as given in patent US8623426B2, “Composition for preventing or treating diseases caused by influenza viruses” (Korea Institute of Oriental Medicine, priority 2009, dated 2014).
# Like-named read-outs stand apart in the source and are kept apart here.
# Assays:
# influenza virus = format: cell-based; settings: 1.23 mg/ml
smiles,measurement,setting,value
"CCOC(=O)C1=C[C@@H](OC(CC)CC)[C@H](NC(C)=O)[C@@H](N)C1 [Tamiflu, oseltamivir]",cytotoxicity,MDCK cells,comparatively high cytotoxicity
same,Cell viability (%),MDCK cells; 0.14 mg/ml,64.02%
same,Cell viability (%),MDCK cells; 0.41 mg/ml,54.94%
same,Cell viability (%),MDCK cells; 1.23 mg/ml,20.83%
same,cytotoxicity,MDCK cells; 1.23 mg/ml,showed high cytotoxicity
same,antiviral activity,influenza virus,no antiviral activity
